Results published in PubChem BioAssay (NCI).
“And” between values parts separate entries of the source, which are not always exact repeats. Equal entries are not always repeated.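 Five compound concentrations were applied to cells in 96-well plates for 48 hours; endpoints were derived by simple linear interpolation of the resulting dose-response curve. Abbreviation: GI50, concentration required for 50% inhibition of growth. The concentration for full growth arrest is given as TGI.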

Key:
Experiment in all cases: NCI tumour cell line growth inhibition, 48 h
[1] = system: A549 NSCLC
[2] = system: ACHN renal
[3] = system: HT29 colon
[4] = system: K-562 leukemia
[5] = system: M14 melanoma
[6] = system: RXF 393 renal
[7] = system: SF-539 CNS
[8] = system: SN12C renal
[9] = system: SW-620 colon
[10] = system: UO-31 renal

Row | SMILES | GI50 [1] [µM] | TGI [1] | TGI [2] | GI50 [3] [µM] | TGI [3] | GI50 [4] [µM] | TGI [4] [µM] | TGI [5] [µM] | GI50 [6] | TGI [6] | GI50 [7] [µM] | TGI [7] | GI50 [8] [µM] | TGI [8] | GI50 [9] [µM] | TGI [9] | TGI [10] | GI50 [2] [µM] | GI50 [5] [µM] | GI50 [10] [µM]
1 | Cc1ccc(/C=C2\CNC/C(=C\c3ccc(C)cc3)C2=O)cc1 | 0.861 | 2.9 µM and > 27.1 µM | 3.81 µM and 5.93 µM | 0.392 | 1.41 µM and 3.04 µM | 1.14 | 2.68 | 11.2 | 2.24 µM and 1.81 µM | 3.84 µM and 3.29 µM | 1.53 | 5.04 µM and 19.5 µM | 1.77 | 3.24 µM and 6.25 µM | 0.473 | 2.11 µM and 8.36 µM | 3.14 µM and 3.25 µM |  |  | 
2 | O=C(Cc1ccc(/C=C/C(=O)c2ncc[nH]2)cc1)Nc1ccc(C(F)(F)F)cc1 | 6.37 | 27.1 µM | 17.8 µM | 1.09 | 4.47 µM | 1.24 | > 33.3 | 9.25 | 3.75 µM | 8.83 µM | 4.52 | 9.25 µM | 1.87 | 8.02 µM | 1.35 | 5.17 µM | 6.74 µM | 6.33 | 2.58 | 2.43
3 | O=C(O)Cn1ccnc1[N+](=O)[O-] |  | > 100 µM | > 100 µM |  | > 100 µM |  | > 100 | > 100 |  | > 100 µM |  | > 100 µM |  | > 100 µM |  | > 100 µM | > 100 µM |  |  | 
4 | COc1ccc(C2NCCc3c2[nH]c2ccccc32)cc1 (stereo unspecified) |  | > 100 µM | > 100 µM |  | > 100 µM |  | > 100 | > 100 |  | > 100 µM |  | > 100 µM |  | > 100 µM |  | > 100 µM | > 100 µM |  |  | 
5 | COc1ccc2[nH]c(-c3ccccc3)cc2c1 | > 100 | > 100 µM | > 100 µM | > 100 | > 100 µM | 86.8 | > 100 | > 100 | > 100 µM | > 100 µM | > 100 | > 100 µM | > 100 | > 100 µM | > 100 | > 100 µM | > 100 µM | > 100 | > 100 | > 100
6 | COc1cc2cc(Oc3ccc(NC(=O)c4cccc5c4OCCO5)cc3)c(C)nc2cc1OC | 7.04 | > 100 µM | 27.3 µM | 6.12 | > 100 µM | 4.81 | > 100 | > 100 | 8.81 µM | > 100 µM | 9.09 | > 100 µM | 8.4 | > 100 µM | 49.9 | > 100 µM | > 100 µM | 4.01 | 4.9 | 4.17
7 | COc1nc2c(c(O)c(C)c(=O)n2OC2OC(COC(C)=O)C(OC(C)=O)C(OC(C)=O)C2OC(C)=O)c(=O)n1C (stereo unspecified) |  | > 100 µM | > 100 µM |  | > 100 µM |  | > 100 | > 100 |  | > 100 µM |  | > 100 µM |  | > 100 µM |  | > 100 µM | > 100 µM |  |  | 
8 | Cc1cc(=O)oc2cc(OCCn3c(C)nn(-c4ccc(Cl)cc4)c3=O)ccc12 | 6.07 | > 100 µM | > 100 µM | 3.82 | > 100 µM | 1.29 | > 100 | > 100 | 2.76 µM | 30 µM | 4.06 | 47.3 µM | 5.54 | > 100 µM | 2.2 | > 100 µM | > 100 µM | 5.59 | 2.36 | 12.7
9 | Fc1cc(-c2nnc3n2N=C(c2ccc(Cl)cc2Cl)CS3)c(Cl)cc1Cl | 58 | > 100 µM | > 100 µM | 40.5 | > 100 µM | 47.5 | > 100 | > 100 | 51 µM | > 100 µM | 39.2 | > 100 µM | 56.4 | > 100 µM | 36.8 | > 100 µM | > 100 µM | 66.6 | 37.5 | 60.2
10 | COc1cc2nnn3c4ncccc4c(N=O)c3c2cc1OC | 18.2 | > 69.2 µM | 2.15 µM | 1.34 | > 100 µM | 0.282 | > 100 | 13 | 0.989 µM |  | 2.75 | 9.15 µM | 2.54 | > 100 µM | 0.312 | > 100 µM | > 20.8 µM | 0.258 | 4.58 | 0.89
11 | O=C(Nc1cc(S(=O)(=O)c2ccc(Cl)cc2)ccc1Cl)c1cc(I)cc(I)c1O | 19.3 | 38.2 µM | 36 µM | 16.4 | 30.2 µM | 16 | 40.9 | 35 | 15.1 µM | 35.5 µM | 18.6 | 38.2 µM | 16.1 | 34.8 µM | 16.7 | 32 µM | 38.8 µM | 17.1 | 17.6 | 20.9
12 | CC[P+]1(CC)CCCC1 |  | > 100 µM | > 100 µM |  | > 100 µM |  | > 100 | > 100 |  | > 100 µM |  | > 100 µM |  | > 100 µM |  | > 100 µM | > 100 µM |  |  | 
13 | CC1(C)CC(=O)c2c(oc3cc(O)c(O)cc23)C1 |  | > 100 µM | > 100 µM |  | > 100 µM |  | > 100 | 53.9 |  | > 100 µM |  | > 100 µM |  | > 100 µM |  | 37.2 µM | > 100 µM |  |  | 
14 | CC(C)(CO)N=Cc1ccccc1[O-].CC(C)(CO)N=Cc1ccccc1[O-].[Co+2] | > 100 | > 100 µM | > 100 µM | 100 | > 100 µM | 47.3 | > 100 | > 100 | > 100 µM | > 100 µM | 66.5 | > 100 µM | > 96.6 | > 100 µM | 72.4 | > 100 µM | > 100 µM | > 81.4 | 38.7 | 44.9
15 | Nc1ccn([C@@H]2C(F)=C(CO)[C@@H](O)[C@H]2O)c(=O)n1 | 0.42 | > 100 µM | > 100 µM | 0.625 | > 100 µM | 0.781 | > 100 | > 100 | 8.04 µM | > 100 µM | 1.94 | > 100 µM | 0.448 | > 100 µM | 0.546 | > 100 µM | > 100 µM | 0.755 | 0.859 | 0.462
16 | C/C(=N/NC(=O)CC(=O)N(C(=O)c1ccccc1Cl)c1ccc(C)cc1)c1cc2ccccc2oc1=O |  | > 100 µM | > 100 µM |  | > 100 µM |  | > 100 | > 100 |  | > 100 µM |  | > 100 µM |  | > 100 µM |  | > 100 µM | > 100 µM |  |  | 
17 | O=C(O)C1C(C(=O)O)C2(Cl)C(Cl)=C(Cl)C1(Cl)C2(Cl)Cl.[Cd] (stereo unspecified) | 18.7 | 39 µM | 43.9 µM | 18.4 | 35.9 µM | 16.3 | 51.8 | 38.9 | 13.7 µM | 30.5 µM | 3.66 | 11.7 µM | 18.4 | 36.1 µM | 23.1 | 77.1 µM | 39.3 µM | 21.3 | 19.2 | 20.1
18 | NC(=O)c1cc(I)ccc1NC(=O)COc1ccccc1 | 0.63 | > 100 µM | > 100 µM | 0.367 | > 100 µM | 0.214 | 24.2 | > 100 | 0.453 µM | 4.53 µM | 0.29 | 1.58 µM | 2.3 | > 100 µM | 0.432 | > 100 µM | > 100 µM | 1.5 | 0.403 | 4.27
19 | C[N+](C)=c1nc(N2CCOCC2)ss1 |  | > 100 µM | > 100 µM |  | > 100 µM |  | > 100 | > 100 |  | > 100 µM |  | > 100 µM |  | > 100 µM |  | > 100 µM | > 100 µM |  |  | 
20 | CCc1cccc(CC)c1/C=C/c1cncc(C(=O)NC)c1 | 9.3 | > 25 µM | > 25 µM | 8.79 | > 25 µM | 5.62 | > 25 | 18.8 | 5.87 µM | 24.8 µM | 8.58 | > 25 µM | 10.8 | > 25 µM | 10.5 | > 25 µM | > 25 µM | 22.1 | 6.57 | 8.8
21 | CCCCCCCCCC(=O)Oc1cccc2onc(C)c12 |  | > 100 µM | > 100 µM |  | > 100 µM |  | > 100 | > 100 |  | > 100 µM |  | > 100 µM |  | > 100 µM |  | > 100 µM | > 100 µM |  |  | 
22 | Cc1nnc(N=Nc2c(O)[nH]c3ccccc23)n1N |  | > 100 µM | > 100 µM |  | > 100 µM |  | > 100 | > 100 |  | > 100 µM |  | > 100 µM |  | > 100 µM |  | > 100 µM | > 100 µM |  |  | 
23 | COc1cc(O)c(C(C)=O)c(O)c1 |  | > 100 µM | > 100 µM |  | > 100 µM |  | > 100 | > 100 |  | > 100 µM |  | > 100 µM |  | > 100 µM |  | > 100 µM | > 100 µM |  |  | 
